Ends that are not written are not given here. A value given as a limit tells only on which side of the number the result lay.

The values below come from paper PMC10611374, “Characterization of the Hemolytic Activity of Mastoparan Family Peptides from Wasp Venoms” (Toxins, 2023).

The test system of one test is S. aureus. Particulars: reported antibacterial activity; reference per peptide in Table 3; cited from earlier work.
For test [1], the system named is human red blood cells (HRBCs). Briefly: Hemolytic assay on human red blood cells. In kind it is cell-based. Particulars: for HRBC Hemolysis (hemolysis rate at 320 μg/mL) / EC50: human red blood cells 5% (v/v) in PBS, 37 °C 1 h, OD 540 nm, 1% Triton X-100 = 100%; for HRBC Hemolysis (hemolysis rate at 320 μg/mL): peptide 320 μg/mL (highest dose), PBS = 0%, mean of three independent experiments; for EC50: peptide 10-320 μg/mL twofold dilutions, four-parameter logistic fit of mean of three independent experiments, '-' = hemolytic activity too low to calculate the EC50, read-out: HRBC EC50 (hemolytic activity); for hemolytic activity on HRBCs, result in words: mutants relative to Protopolybia-MPIII. The protocol:
(§1) Fresh human red blood cells were obtained from healthy donors and collected in a sterile blood collecting vessel covered with sodium citrate (1:9) as the anticoagulating agent. Rat red blood cells were collected from the abdominal aorta in sterile blood-collecting vessels coated with sodium citrate (1:4) after the SD rats were anaesthetized with isoflurane. Then, the cells were washed three times with phosphate-buffered saline via centrifugation (1000× g, 4 °C, 5 min) and prepared in a sterile 96-well polypropylene plate to achieve a final concentration of 5% (v/v). Twofold dilutions of the peptides were prepared in PBS to 100 μL and mixed with an equal volume of HRBCs/RRBCs suspension to final peptide concentrations ranging from 10 to 320 μg/mL. After coincubation at 37 °C for 1 h, the plate was centrifuged (2000× g, 4 °C, 20 min), and 100 μL of supernatant was taken for optical density measurements at 540 nm using a microtiter plate reader (SpectraMax 190). The HRBCs/RRBCs were assayed with PBS (blank) or 1% Triton X-100 (positive control) to represent 0% and 100% hemolysis, respectively. The percent hemolysis was calculated according to the following equation: Hemolysis Rate (%) = 100% × (Amastoparans − Ablank)/(ATriton X-100 − Ablank). Three independent experiments were performed, and the mean hemolysis rate at each dose was used to calculate the EC50 in Sigmaplot software.
(§2) Statistical analysis was performed with GraphPad Prism software (version 5.0, San Diego, CA, USA). A two-tailed Student’s t-test was used to calculate the statistical probability in this study. Differences in the data were considered to be statistically significant when the p value was equal to or less than 0.05. The curve of hemolysis induced by wasp mastoparans was generated in SigmaPlot 12.5 software, and the EC50 was calculated according to the equation (Four Parameter Logistic Curve): y = min + (max − min)/(1 + (x/EC50)^−Hillslope). The heat map of hemolytic activity of mastoparan peptide was analysed in R software which is based on the value of log2(EC50).

Test [2] deals with rat red blood cells (RRBCs). Nature of the test: Hemolytic assay on rat red blood cells. Format: cell-based, SD rats. Particulars: for RRBC Hemolysis (hemolysis rate at 320 μg/mL) / EC50: rat red blood cells 5% (v/v) in PBS, 37 °C 1 h, OD 540 nm, 1% Triton X-100 = 100%; for RRBC Hemolysis (hemolysis rate at 320 μg/mL): peptide 320 μg/mL (highest dose), PBS = 0%, mean of three independent experiments; for EC50: peptide 10-320 μg/mL twofold dilutions, four-parameter logistic fit of mean of three independent experiments, '-' = hemolytic activity too low to calculate the EC50, read-out: RRBC EC50 (hemolytic activity). The protocol: as §1, §2

The next test deals with B. subtilis. Particulars: reported antibacterial activity; reference per peptide in Table 3; cited from earlier work.
For another test, the system named is E. coli. Particulars: reported antibacterial activity; reference per peptide in Table 3; cited from earlier work.
Test [3] deals with Escherichia coli and Staphylococcus aureus/Bacillus subtilis. Also noted: method as in Table 3 refs 12, 13, 18-30. Particulars: both on Escherichia coli and Staphylococcus aureus/Bacillus subtilis; reported values, ref Table 3 refs 12, 13, 18-30; cited from earlier work.

For the substance INLKGLIKKVASLLT-OH [EpVP1], in the test on S. aureus, the “MIC S. aureus” value was 100 µM. Also, in test [1], the “HRBC Hemolysis (hemolysis rate at 320 μg/mL)” value (shortened to “HRBC Hemolysis”) stood at 9%; the EC50 is above 400 µM; the “hemolytic activity on HRBCs, result in words” value was “almost no hemolytic activity”. Also, in test [2], the “hemolytic activity on RRBCs, result in words” value was “almost no hemolytic activity”; the “RRBC Hemolysis (hemolysis rate at 320 μg/mL)” value (“RRBC Hemolysis” for short) was determined as 0%; the EC50 was above 400 µM. The “MIC B. subtilis” value in the test on B. subtilis was 5 µM. Also, the “MIC E. coli” value in the test with E. coli is 25 µM.

Consider “INWKGIAAMKKLL-NH2 [Mastoparan-like peptide 12b]”, for which, in the test with S. aureus, the “MIC S. aureus” value was 2.5 µM. Also, in test [1], the “HRBC Hemolysis” value amounted to 0% and the EC50 is at least 400 µM. Also, the “MIC (antibacterial activity, summary)” value in test [3] was at most 10 µM. In addition, in test [2], the “RRBC Hemolysis” value was determined as 0% and the EC50 is above 400 µM. In addition, the “MIC E. coli” value in the test with E. coli was 10 µM.

As for INWKKIAEIGKQVLSAL-NH2 [Dominulin B], in test [1], the “HRBC Hemolysis” value is given as 8% and the concentration for a half-maximal effect (EC50) is at least 400 µM. In test [3], the “MIC (antibacterial activity, summary)” value was at most 10 µM. Also, in test [2], the “RRBC Hemolysis” value came out at 0% and the EC50 is above 400 µM. Moreover, the “MIC B. subtilis” value in the test on B. subtilis is 4 µM. Further, the “MIC E. coli” value with E. coli is 1 µM.

For INWKKIAEVGGKILSSL-NH2 [Dominulin A], in test [1], the “HRBC Hemolysis” value is listed as 4% and the EC50 was at least 400 µM. In addition, the “MIC (antibacterial activity, summary)” value in test [3] is at most 10 µM. Besides, in test [2], the “RRBC Hemolysis” value is given as 0% and the EC50 is above 400 µM. Further, in the test on B. subtilis, the “MIC B. subtilis” value is 4 µM. Also, the “MIC E. coli” value in the test with E. coli was 1 µM.

Take KDLHTVVSAILQAL-NH2 [OdVP3a]: the “MIC S. aureus” value with S. aureus is above 200 µM. In test [1], the “HRBC Hemolysis” value is on record as 24% and the EC50 was above 400 µM. In test [2], the “RRBC Hemolysis” value stood at 27% and the EC50 is above 400 µM. For the same substance, the “MIC B. subtilis” value in the test with B. subtilis is 10 µM. Further, the “MIC E. coli” value in the test with E. coli is above 200 µM.

In the case of LKLLGIVKKVLGAI-NH2 [EMP-EM2], the “MIC S. aureus” value in the test with S. aureus was 17 µM. Moreover, in test [1], the “HRBC Hemolysis” value is reported as 8% and the EC50 was above 400 µM. Besides, in test [2], the “RRBC Hemolysis” value worked out at 2% and the EC50 is above 400 µM. Moreover, the “MIC B. subtilis” value in the test on B. subtilis is 68 µM. Also, the “MIC E. coli” value with E. coli is 3 µM.

In the case of LKLMGIVKKVLGAL-NH2 [EMP-EM1], the “MIC S. aureus” value in the test with S. aureus is 34 µM. Besides, in test [1], the “HRBC Hemolysis” value is on record as 21% and the EC50 was above 400 µM. In addition, in test [2], the “RRBC Hemolysis” value turned out to be 7% and the EC50 is above 400 µM. For the same substance, in the test with B. subtilis, the “MIC B. subtilis” value was 68 µM. Further, the “MIC E. coli” value in the test on E. coli is 7 µM.

Regarding LNLKGIFKKVASLLT-OH [Eumenitin], the “MIC S. aureus” value with S. aureus was 6 µM. Moreover, in test [1], the “HRBC Hemolysis” value worked out at 6%; the EC50 is above 400 µM; the “hemolytic activity on HRBCs, result in words” value is “almost no hemolytic activity”. For the same substance, in test [2], the “hemolytic activity on RRBCs, result in words” value was “almost no hemolytic activity”; the “RRBC Hemolysis” value came out at 4%; the EC50 is above 400 µM. The “MIC B. subtilis” value with B. subtilis was above 60 µM. The “MIC E. coli” value in the test on E. coli was 6 µM.

The EC50 is the concentration at which the effect is half-maximal.
